Like-named read-outs stand apart in the source and are kept apart here.
Experiments:
Lipogems-derived hASCs [1] = details: 2 mg/ml HBR
Description: (§1) A, Sox2; B, Oct4; C, Nanog. The amount of each transcript from exposed or unexposed cells was normalized to HPRT1, and the mRNA expression of exposed cells was plotted at each time point as fold change relative to the expression in control unexposed cells, defined as 1 (mean±S.E.; n=6);

[2] = system: human dermal skin fibroblasts; details: 2 mg/ml HBR
Description: as §1

Lipogems-derived hASCs [3] = details: 2 mg/ml HBR, 7-day treatment
Description: as §1, with “GATA4;” for “Sox2;”, “Nkx2.5;” for “Oct4;”, “neurogenin1; D, VEGF; E, MyoD.” for “Nanog.”

[4] = system: human dermal skin fibroblasts; details: 2 mg/ml HBR, 7-day treatment
Description: as §1, with “GATA4;” for “Sox2;”, “Nkx2.5;” for “Oct4;”, “neurogenin1; D, VEGF; E, MyoD.” for “Nanog.”

[5] = system: human dermal skin fibroblasts; details: HBR 2 mg/ml for 14 days, confocal microscopy
Description: Scale bars are 40 μm. Representative of six separate experiments;

[6] = system: human dermal skin fibroblasts; assay: Comparative analysis of HBR, its grafting moieties alone or as a mixture, on stemness gene expression; assay type: cell-based; details: 12 hours, 2.0 mg/ml HBR, 1.5 mg/ml HA, 2.5 mM BU, 10^-8M RA, hydrolyzed HBR 2 mg/ml
Description: FIG. 6 is the comparative analysis of the effect of HBR, or its grafting moieties alone or as a mixture, on the expression of sternness-related genes in human dermal skin fibroblasts: cells were incubated for 12 hours in the absence or presence of 2.0 mg/ml HBR, 1.5 mg/ml HA, 2.5 mM BU, or 10^-8M RA, or exposed to a hydrolyzed (HY) HBR solution (2 mg/ml), obtained from a 2-h basic HBR hydrolysis followed by pH neutralization. This procedure affords a complete release of each single HBR grafted moiety, leading to the formation of a mixture of HA, BU, and RA, with each molecule in the concentration range reported above for the experiments based on cell incubation in the presence of each molecule alone. The amount of each transcript from exposed or unexposed cells was normalized to HPRT1, and the mRNA expression of exposed cells was plotted at each time point as fold change relative to the expression in control unexposed cells, defined as 1 (mean±S.E.; n=6).
This procedure affords a complete release of each single HBR grafted moiety, leading to the formation of a mixture of HA, BU, and RA, with each molecule in the concentration range reported above for the experiments based on (stem) cell incubation in the presence of each molecule alone.

human skin fibroblasts = details: 14 days, 2 mg/ml HBR, mean±S.E., n=6
Lipogems-derived hASCs [7] = details: 14 days, 2 mg/ml HBR, mean±S.E., n=6
Lipogems-derived hASCs [8] = details: HBR for 14 days, confocal microscopy
[9] = system: adult rat cardiac ventricular cardiomyocytes; details: in vitro HBR treatment; cited from earlier work
[10] = system: Stro-1 positive rat mesenchymal stem cells; details: in vitro HBR treatment; cited from earlier work
[11] = later times of exposure (7-day treatment)
[12] = within the first 12-24 hours of a 7-day treatment

## hyaluronic acid esterified with butyric and retinoic acids [HBR]
Lipogems-derived hASCs [1]; [11]
  transcription of stemness-related genes Nanog, Sox2, Oct4: down-regulation
Lipogems-derived hASCs [1]; [12]
  transcription of stemness-related genes Nanog, Sox2, Oct4: significantly enhanced
[2]; [11]
  transcription of stemness-related genes Nanog, Sox2, Oct4: down-regulation
[2]; [12]
  transcription of stemness-related genes Nanog, Sox2, Oct4: significantly enhanced
Lipogems-derived hASCs [3]
  gene expression of GATA4, Nkx2.5, VEGF, neurogenin-1 and myoD: significantly enhanced
[4]
  gene expression of GATA4, Nkx2.5, VEGF, neurogenin-1 and myoD: significantly enhanced
[5]
  expression of tissue restricted marker proteins (α-myosin heavy chain, α-sarcomeric actinin, β-3 tubulin, vWF, myoD): appearance of cells expressing
[6]
  transcription of the stemness/pluripotency genes Sox2, Nanog and Oct4 versus unexposed control: significantly higher levels
Human skin fibroblasts
  cells expressing vWF (endothelial marker): 18.0±2.6
  cells expressing β-3-tubulin (neuronal determination marker): 12.30±2.7%
  percentage of myoD (skeletal muscle)-positive elements: 14.00±3.00%
  percentage of α-sarcomeric actinin (myocardial)-positive elements: 28.00±3.40%
Lipogems-derived hASCs [7]
  cells expressing α-sarcomeric actinin: 31.0±2.8%
  myoD positive cells: 12.4±2.0%
  vWF positive cells: 22.2±3.0%
  β-3-tubulin expressing cells: 14.0±2.1%
Lipogems-derived hASCs [8]
  expression of tissue restricted marker proteins (α-myosin heavy chain, α-sarcomeric actinin, β-3 tubulin, vWF, myoD): appearance of cells expressing
[9]
  histone H4 acetylation compared with untreated cells: significant increase
[10]
  histone H4 acetylation compared with untreated cells: significant increase

## CCCC(=O)O [BU, butyric acid]
[6]
  transcription of the stemness/pluripotency genes Sox2, Nanog and Oct4 versus unexposed control: significantly increased

## hyaluronic acid [HA]
[6]
  transcription of the stemness/pluripotency genes Sox2, Nanog and Oct4 versus unexposed control: significantly increased

Reference: patent US20150275180A1, “Chemical preconditioning process for cell material to obtain chemical epigenetic reprogramming and pluripotency expression” (priority 2012, published 2015)
